Reference: article PMC8635623, “A click chemistry approach to pleuromutilin derivatives, evaluation of anti-MRSA activity and elucidation of binding mode by surface plasmon resonance and molecular docking” (Journal of Enzyme Inhibition and Medicinal Chemistry, 2021)
Converted amounts (≈) assume the structure as drawn.

How the values were obtained:
[1] = system: S. aureus ATCC 29213; assay: MIC/MBC by broth micro dilution; type: cell-based; conditions: Staphylococcus aureus; for MIC: ATCC29213, 37 °C, 24 h; for MBC: ATCC29213, lowest concentration reducing viable counts by 99.9%
Description: (§1) All the synthesised 1,2,3-triazole linked pleuromutilin analogues were screened for in vitro antibacterial activities against methicillin-resistant S. aureus (ATCC 43300), S. aureus (ATCC 29213), and two clinical strains of S. aureus (AD3 and 144, isolated from Guangdong Province, China). The MICs and MBCs of the synthesised pleuromutilin derivatives along with pleuromutilin and tiamulin used as the reference antibacterial drugs, were determined by the broth micro dilution methods according to the Clinical and Laboratory Standards Institute (CLSI)[18].
(§2) The MIC of these novel pleuromutilin derivatives against methicillin-resistant S. aureus (ATCC 43300), S. aureus (ATCC 29213), S. aureus (AD3) and S. aureus (144) were determined by using pleuromutilin and tiamulin as positive control. MIC values were determined by the broth micro dilution methods in accordance with the Clinical and Laboratory Standards Institute (2012). Stock solutions of these compounds were dissolved in methanol to make a stock solution with a concentration of 1280 µg/mL. The working solutions (640 µg/mL) were obtained by diluting stock solutions in sterile Mueller-Hinton (MH) broth. The bacterial solution and solutions of these compounds with a final concentration of 0.016–32 µg/mL were distributed into 96-well plates, with a total volume of 200 µL. Three parallel experiments for each compound concentration. The plates were incubated at 37 °C for 24 h.
(§3) MBC values were determined according to CLSI (2003) and previously report with slightly modification[18]^,[28]^,[31]. After obtaining the MIC results, the 96-well plates were incubated at 37 °C for 24 h. 100 µL of the bacterial solution from the wells with no visible growth was inoculated on MH agar plates. The MH agar plates were incubated at 37 °C for colony count. The MBC was determined as the lowest concentration of compound, which reduces the viable counts for 99.9%.

[2] = system: S. aureus AD3; assay: MIC/MBC by broth micro dilution; type: cell-based; conditions: Staphylococcus aureus, S. aureus AD3 (clinical strain); for MIC: 37 °C, 24 h; for MBC: lowest concentration reducing viable counts by 99.9%
Description: as §1, §2, §3

[3] = system: S. aureus 144; assay: MIC/MBC by broth micro dilution; type: cell-based; conditions: Staphylococcus aureus, S. aureus 144 (clinical strain); for MIC: 37 °C, 24 h; for MBC: lowest concentration reducing viable counts by 99.9%
Description: as §1, §2, §3

[4] = target: 50S ribosome; assay: SPR binding studies; design: species or system S. aureus; conditions: 4 °C; for Kd: PBST pH 7.4, KD = Kd/Ka, read-out: KD (equilibrium dissociation constant); for Ka (association rate constant) / Kd (dissociation rate constant): PBST pH 7.4, compound immobilised, 50S ribosome 200-3200 nM
Description: In order to gain some insight into the binding mode of the potent inhibitors, SPR experiments were performed. […] The response unit (RU) of surface resonance was compared to determine the different binding affinities between each compound and the 50S ribosome. The association rate constants (Ka) and dissociation rate constant (Kd) represent the rate of association and dissociation in the binding reaction, respectively. The equilibrium dissociation constant (KD) indicated the degree of dissociation of compounds and the 50S ribosome in the equilibrium state. Their binding curves during the experiment were shown in Figure 3, as well as the concentration gradient curves were shown in Figure SI 27–34.
SPR biosensing experiments were performed at 4 °C using the bScreen LB 991 Label-free Microarray System (Berthold Technologies, Germany) and the photo-cross-linker sensor chip. The BIODOT™ AD-1520 Array Printer (BIODOT Inc., USA) was used for printing samples and control on the chip surface. A UV Spectroirradiator 1020 (Amersham Life Science, USA) was used for the photo-cross-linking reaction quickly after the array print.
As described in the reference[32–34] with minor modifications, the ribosome of S. aureus were extracted and purified to obtain 50S ribosome. MRSA (ATCC 43300) was incubated overnight at 37 °C. The bacteria solution was inoculated into a new culture solution, and cells were collected at an OD600 = 1.5. The bacterial culture was centrifuged 3 times at 3,500 rpm using a TX-400 rotor at 4 °C for 30 min, and then the supernatant was discarded. Cells were washed twice with 10 mM Tris-HCl (pH = 7.5), and suspend the precipitate with buffer A (20 mM HEPES-HCl pH = 7.5, 100 mM NH4Cl, 21 mM Mg(OAc)2, 1 mM EDTA, 1 mM DTT). Cells were lysed by repeated (>3×) snap-freezing and thawing, then ultrasonic disintegration was performed. To remove cell debris, the crushed product was centrifuged at 20,000 rpm for 90 min at 4 °C.The lysate layered on 15 ml of a sucrose cushion (10 mM HEPES-HCl pH = 7.5, 500 mM KCl, 25 mM Mg(OAc)2, 1.1 M sucrose, 0.5 mM EDTA, 1 mM DTT) and centrifuged in the ultracentrifuge(Optima^TM TL 100) at 45,000 rpm using a type70Ti rotor at 4 °C for 15 h to obtain ribosomal particles. Pellet was resuspended in 3 ml of buffer E (10 mM HEPES-HCl pH = 7.5, 100 mM KCl, 1 mM Mg(OAc)2, 0.5 mM EDTA, 1 mM DTT), then layered on 9 ml of 7–30% sucrose gradient and ultracentrifuged at 17,100 rpm using a typeSW40Ti rotor at 4 °C for 15 h. The gradient was analysed on the AKTA explorer system. The fractions corresponding to 50S ribosome were collected and PEG 20000 was added to a final concentration of 4.5% w/v. Ribosomes were pelleted by centrifugation at 20,000 rpm for 12 min, the pellet was gently dissolved in 200 µL of storage buffer (10 mM HEPES-HCl pH = 7.5, 15 mM KCl, 60 mM NH4Cl, 10 mM Mg(OAc)2, 1 mM DTT) and then flash-frozen for storage at −80 °C.
Dilute these compounds to a concentration of 10 mM with DMSO as the stationary phase printing working solution. After that, the printing working solution was printed on the sensor chip by the array printer, and each sample was printed four times repeatedly. Four groups of positive control dots (12 rapamycin dots, 3 in each corner) were printed on the four corners of the sensor chip respectively. The sample dots were dried in vacuum, and the sensor chip was quickly transferred to the UV spectroirradiator for a photo-cross-linking reaction. Subsequently, the sensor chip was washed with DMF, methanol, and water for 15 min in turn, followed by blowing dry under nitrogen, and then assembled with Flowcell Cover.
The binding studies were performed with PBST running buffer (pH = 7.4, 0.1% Tween 20) at a constant flow rate of 0.5 µL/s in instrument. 50S Ribosome was diluted separately with PBST running buffer to 200 nM, 400 nM, 800 nM, 1600 nM and 3200 nM and injected consecutively for 600 s at associating stage, followed by running buffer for 360 s at each dissociating stage. […]

[5] = system: MRSA ATCC 43300; assay: MIC/MBC by broth micro dilution; type: cell-based, methicillin-resistant S. aureus; conditions: Staphylococcus aureus; for MIC: 37 °C, 24 h, read-out: MIC; for MBC: lowest concentration reducing viable counts by 99.9%
Description: as §1, §2, §3

C=C[C@]1(C)C[C@@H](OC(=O)Cn2cc(CN3CCN(c4cccc(C)c4)CC3)nn2)[C@]2(C)[C@H](C)CC[C@]3(CCC(=O)[C@H]32)[C@@H](C)[C@@H]1O [Compound 51, 22-(2-(4-(4-(m-Tolyl)-piperazin-1-yl)-methyl)-1H-1,2,3-triazol-1-yl)-22-deoxy pleuromutilin]
MIC [1]: 2 µg/mL (≈ 3.24 µM)
MBC [1]: 4 µg/mL (≈ 6.47 µM)
MIC [2]: 2 µg/mL (≈ 3.24 µM)
MBC [2]: 4 µg/mL (≈ 6.47 µM)
MIC [3]: 4 µg/mL (≈ 6.47 µM)
MBC [3]: 8 µg/mL (≈ 12.9 µM)
Kd [4]: 8.66 µM
Ka (association rate constant) [4]: 3800 M⁻¹ s⁻¹
Kd (dissociation rate constant) [4]: 0.0329 s⁻¹
MIC [5]: 1 µg/mL (≈ 1.62 µM)
MBC [5]: 2 µg/mL (≈ 3.24 µM)

C=C[C@]1(C)C[C@@H](OC(=O)Cn2cc(CN3CCN(c4ccccc4F)CC3)nn2)[C@]2(C)[C@H](C)CC[C@]3(CCC(=O)[C@H]32)[C@@H](C)[C@@H]1O [Compound 53, 22-(2-(4-(4-(2-Fluorophenyl)-piperazin-1-yl)-methyl)-1H-1,2,3-triazol-1-yl)-22-deoxy pleuromutilin]
MIC [1]: 4 µg/mL (≈ 6.43 µM)
MBC [1]: 8 µg/mL (≈ 12.9 µM)
MIC [2]: 4 µg/mL (≈ 6.43 µM)
MBC [2]: 8 µg/mL (≈ 12.9 µM)
MIC [3]: 8 µg/mL (≈ 12.9 µM)
MBC [3]: 8 µg/mL (≈ 12.9 µM)
Kd [4]: 51 µM
Kd (dissociation rate constant) [4]: 0.00403 s⁻¹
MIC [5]: 2 µg/mL (≈ 3.22 µM)
MBC [5]: 4 µg/mL (≈ 6.43 µM)

C=C[C@]1(C)C[C@@H](OC(=O)Cn2cc(CN3CCN(c4cccc([N+](=O)[O-])c4)CC3)nn2)[C@]2(C)[C@H](C)CC[C@]3(CCC(=O)[C@H]32)[C@@H](C)[C@@H]1O [Compound 63, 22-(2-(4-(4-(3-Nitrophenyl)-piperazin-1-yl)-methyl)-1H-1,2,3-triazol-1-yl)-22-deoxy pleuromutilin]
MIC [1]: 4 µg/mL (≈ 6.17 µM)
MBC [1]: 8 µg/mL (≈ 12.3 µM)
MIC [2]: 2 µg/mL (≈ 3.08 µM)
MBC [2]: 4 µg/mL (≈ 6.17 µM)
MIC [3]: 4 µg/mL (≈ 6.17 µM)
MBC [3]: 16 µg/mL (≈ 24.7 µM)
Kd [4]: 3.48 µM
Ka (association rate constant) [4]: 992 M⁻¹ s⁻¹
Kd (dissociation rate constant) [4]: 0.00345 s⁻¹
MIC [5]: 2 µg/mL (≈ 3.08 µM)
MBC [5]: 2 µg/mL (≈ 3.08 µM)

C=CC1(C)CC(OC(=O)Cn2cc(CN3CCC(O)CC3)nn2)C2(C)C(C)CCC3(CCC(=O)C32)C(C)C1O (stereo not drawn) [Compound 83, 22-(2-(4-(4-Hydroxypiperidin-1-yl)methyl)-1H-1,2,3-triazol-1-yl)-22-deoxy pleuromutilin]
MIC [1]: 16 µg/mL (≈ 29.5 µM)
MBC [1]: 32 µg/mL (≈ 59 µM)
MIC [2]: 16 µg/mL (≈ 29.5 µM)
MBC [2]: 32 µg/mL (≈ 59 µM)
MIC [3]: 32 µg/mL (≈ 59 µM)
MBC [3]: 32 µg/mL (≈ 59 µM)
MIC [5]: 8 µg/mL (≈ 14.7 µM)
MBC [5]: 16 µg/mL (≈ 29.5 µM)

C=CC1(C)CC(OC(=O)Cn2cc(CN3CCCC(CO)C3)nn2)C2(C)C(C)CCC3(CCC(=O)C32)C(C)C1O (stereo not drawn) [Compound 84, 22-(2-(4-(3-(Hydroxymethyl)piperidin-1-yl)methyl)-1H-1,2,3-triazol-1-yl)-22-deoxy pleuromutilin]
MIC [1]: 16 µg/mL (≈ 28.7 µM)
MBC [1]: 32 µg/mL (≈ 57.5 µM)
MIC [2]: 16 µg/mL (≈ 28.7 µM)
MBC [2]: 32 µg/mL (≈ 57.5 µM)
MIC [3]: 32 µg/mL (≈ 57.5 µM)
MBC [3]: 32 µg/mL (≈ 57.5 µM)
MIC [5]: 8 µg/mL (≈ 14.4 µM)
MBC [5]: 16 µg/mL (≈ 28.7 µM)

C=CC1(C)CC(OC(=O)Cn2cc(CN3CCC(CCO)CC3)nn2)C2(C)C(C)CCC3(CCC(=O)C32)C(C)C1O (stereo not drawn) [Compound 85, 22-(2-(4-(4-(2-Hydroxyethyl)piperidin-1-yl)methyl)-1H-1,2,3-triazol-1-yl)-22-deoxy pleuromutilin]
MIC [1]: 16 µg/mL (≈ 28 µM)
MBC [1]: 32 µg/mL (≈ 56.1 µM)
MIC [2]: 16 µg/mL (≈ 28 µM)
MBC [2]: 32 µg/mL (≈ 56.1 µM)
MIC [3]: 16 µg/mL (≈ 28 µM)
MBC [3]: 32 µg/mL (≈ 56.1 µM)
MIC [5]: 8 µg/mL (≈ 14 µM)
MBC [5]: 8 µg/mL (≈ 14 µM)

C=C[C@]1(C)C[C@@H](OC(=O)CO)[C@]2(C)[C@H](C)CC[C@]3(CCC(=O)[C@H]32)[C@@H](C)[C@@H]1O [Pleuromutilin, pleuromutilin]
MIC [1]: 4 µg/mL (≈ 10.6 µM)
MBC [1]: 8 µg/mL (≈ 21.1 µM)
MIC [2]: 2 µg/mL (≈ 5.28 µM)
MBC [2]: 4 µg/mL (≈ 10.6 µM)
MIC [3]: 2 µg/mL (≈ 5.28 µM)
MBC [3]: 4 µg/mL (≈ 10.6 µM)
MIC [5]: 2 µg/mL (≈ 5.28 µM)
MBC [5]: 4 µg/mL (≈ 10.6 µM)

C=C[C@]1(C)C[C@@H](OC(=O)CSCCN(CC)CC)[C@]2(C)[C@H](C)CC[C@]3(CCC(=O)[C@H]32)[C@@H](C)[C@@H]1O [Tiamulin, tiamulin, reference compound]
MIC [1]: 0.5 µg/mL (≈ 1.01 µM)
MBC [1]: 1 µg/mL (≈ 2.03 µM)
MIC [2]: 1 µg/mL (≈ 2.03 µM)
MBC [2]: 2 µg/mL (≈ 4.05 µM)
MIC [3]: 1 µg/mL (≈ 2.03 µM)
MBC [3]: 2 µg/mL (≈ 4.05 µM)
Kd [4]: 0.0363 µM
Ka (association rate constant) [4]: 122 M⁻¹ s⁻¹
Kd (dissociation rate constant) [4]: 4.44e-06 s⁻¹
MIC [5]: 0.5 µg/mL (≈ 1.01 µM)
MBC [5]: 1 µg/mL (≈ 2.03 µM)
